Experimental data published in patent publication US20140295012A1, “LATENT HUMAN IMMUNODEFICIENCY VIRUS REACTIVATION” (priority 2011, published 2014).
*1 amine or outer side, *2 acyl side, *3 side chain or, on linkers, in order; H or OH if unused. Where a SMILES comes first, the peptide text is derived from it. Bridges are numbered along the chain shown (N, C = ends). Roman numbers before positions name the chains, in order. [ ]: non-standard residue; d: D form. Actinocin(9to1) = Cc1c2oc3c(C)ccc(C(=O)[*:1])c3nc-2c(C(=O)[*:2])c(N)c1=O; NMeV = CN[C@H](C(=O)O)C(C)C; Sar = CNCC(=O)O

How the values were obtained:
Assay type in all cases: cell-based
[1] = test system: chronically actively infected T cell lines (JNLG#35 and JNLG#44); experiment: Active HIV-1 transcription in chronically actively infected T cell lines JNLG#35 and JNLG#44 (GFP MCF); settings: 48 hours
Procedure: Changes in HIV-1 transcription levels were determined after 48 hours by measuring GFP mean channel fluorescence intensity (GFP MCF). GFP MCF was plotted over the drug concentration for dactinomycin (FIG. 12A), the DNA intercalators daunorubicin (DM) (FIG. 12B) and rebeccamycin (RM) (FIG. 12C), as well as the transcription inhibitors ICRF-193 (FIG. 12D), DRB (FIG. 12E) and α-amanitin (FIG. 12F). The size of symbols indicates the respective cell viability in the sample (size range adjusted to 5-95%).
For this purpose, each of the compounds was titrated over a relevant range of concentrations on two chronically actively infected T cell lines (JNLG#35 and JNLG#44). These clonal cell lines are infected with a GFP-reporter virus. Forty eight hours after addition of the compounds, the effect of each compound on HIV-1 transcription was determined by flow cytometric analysis quantifying GFP mean channel fluorescence intensity (MCF).

[2] = test system: P-TEFb/HEXIM-1 complex; experiment: Glycerol gradient sedimentation analysis of P-TEFb/HEXIM-1 complex in J89GFP cells (Western blot)
Procedure: J89GFP cells were left untreated, treated with a high concentration of dactinomycin for 1 hour or with the physiological optimal concentration (0.004 μg/ml or 0.01 μg/ml) for 18 hours. Cell lysates were separated on a glycerol gradient (10-45%). Each gradient fraction was separated on a 10% SDS-PAGE gel and transferred by Western blot. […] Band densities were determined using ImageJ and are presented as relative band density. […] Band densities were determined using ImageJ and are presented as relative band density.
Ten million J89GFP or CA5 T cells were left untreated or treated with 0.004 μg/mL, 0.01 μg/ml or 1 μg/mL dactinomycin for 18 hours or 1 hour, respectively. Cells were washed twice with cold PBS, then lysed for 30 minutes on ice in lysis buffer (0.5% TritonX100, 20 mM HEPES (pH7.9), 150 mM NaCl, 20 mM KCl, 2 mM MgCl2, 1 mM DTT, 0.2 mM EDTA, and protease inhibitor cocktail (P8340; SIGMA)), followed by centrifugation at 14,000 rpm for 10 minutes. The same amount of protein lysate was fractionated on 5 ml of a 10-45% glycerol gradient in lysis buffer in a SW-Ti55 rotor (Beckman Coulter; Miami, Fla.) for 16 hours at 45,000 rpm. Fractions were resolved on 10% SDS-PAGE and transferred to polyvinylidene fluoride membrane. The antibodies used for Western blotting were rabbit anti-Cdk9 (sc-484; Santa Cruz Biotechnology; Santa Cruz, Calif.) and rabbit anti-HEXIM1 (ab25388; Abcam; Cambridge, Mass.), respectively.
To test the idea that dactinomycin primed latent HIV-1 infection for reactivation by releasing P-TEFb (a complex of CDK9 and Cyclin T1) from its complex with HEXIM-1, the latently HIV-1 infected J89GFP or CA5 T cells were treated with 1.0 μg/ml dactinomycin for 1 hour or with the physiological optimal concentration of 0.004 μg/ml for 18 hours. Cell lysates were then separated on a glycerol gradient (10-45%) to reveal possible changes in the composition of the P-TEFb/HEXIM-1 complex. […] Each gradient fraction was separated on a SDS-PAGE gel and subjected to Western blotting. […] Similar results were obtained using anti-HEXIM-1 antibody. […] The minimal dactinomycin concentration to induce a shift towards the small complex was 0.01 μg/ml of dactinomycin. […] Similar results were obtained using the latently infected CA5 T cells.

[3] = test system: NF-κB dependent promoters in 293T cells; experiment: NF-κB dependent promoter constructs transfected into 293T cells (EGFP expression)
Procedure: FIGS. 6A-6C show HRF triggers suboptimal functional induction of NF-κB dependent gene expression. […] The HIV-1 reactivating kinetics were determined by stimulating CA5 T cells with optimal concentrations of HRF, phorbol 12-myristate 13-acetate (PMA) and tumor necrosis factor-α (TNF-α) and analyzing HIV-1 reactivation as a function of EGFP-expression over a period of 48 hours. Data for all agents are depicted as the percentage of EGFP-positive cells in the total cell population. […] To test the ability of HRF to mediate Tat-independent activation of the HIV-1 LTR, NOMI cells (HIV-1 reporter cell line with an integrated LTR-EGFP construct) were stimulated with increasing concentrations of PMA (0.01-10 ng/ml), TNF-α (0.003-30 μg/ml) and HRF supernatant (0.3-100 μl). The level of LTR-induction was then measured as EGFP-expression detectable after 24 hours as determined by flow cytometric analysis. Arrows indicate the concentrations at which the respective stimulus would have triggered full HIV-1 reactivation in the latently HIV-1 infected CA5 T cell line. […] 293T cells were transfected with several NF-κB dependent promoter constructs and then stimulated with either TNF-α (10 μg/ml) or HRF (25 μl). Promoter induction was measured as total EGFP expression. (NF-κB:pNF-κB-d2EGFP; LTR:HIV-1 LTR-GFP; IL-8:pIL-8 GFP; TNF:human TNF-GFP; MSCV:murine stem cell virus LTR driven GFP; no NF-κB responsive elements).
The utilized EGFP reporter virus HIV-1 NLENG1-IRES has been described elsewhere (Kutsch et al., J. Virol. 76:8776-86 (2002); Levy et al., Proc. Natl. Acad. Sci. USA 101:4204-9 (2004)). The reporter plasmid pNF-κB-d2EGFP was purchased from Clontech (Mountain View, Calif.). The LTR-GFP construct and the IL-8 reporter construct have been described earlier (Choi et al., Mol. Cell. Biol. 22:724-36 (2002)). The TNF-promoter construct was generated by cloning the human TNF-α promoter element defined by primer pair 5′-BglII; 5′-[…] […]-3′ (SEQ ID NO:2) and 3′-AgeI; 5′-[…] […]-3′ (SEQ ID NO:3) into pd2EGFP (Clontech). MSCV-GFP was generated by cloning the EGFP-gene into retroviral pMSCV-puro vector (Clontech).

[4] = test system: NF-κB; experiment: NF-κB activity measured by GFP production in Jurkat T cells; settings: compared with Salmonella typhimurium flagellin
[5] = test system: latently HIV-1 infected monocytic THP89GFP cells; experiment: HIV-1 reactivation in latently infected monocytic THP89GFP cells

Row | Molecule | effect on active HIV-1 infection / transcription (GFP MCF) [1] | shift of CDK9 from large to small complex ([2]; 0.004 μg/ml for 18 hours) | shift of HEXIM-1 towards the small complex ([2]; 0.004 μg/ml for 18 hours) | release of P-TEFb from its complex with HEXIM-1 (anti-CDK9) ([2]; 1 μg/ml for 1 hour, J89GFP) | minimal concentration to induce a shift of HEXIM-1 towards the small complex ([2]; 18 hours) [µg/mL] | GFP expression driven by NF-κB responsive promoter constructs (IL-8, TNF-α, HIV-1 LTR, three consensus NF-κB sites) [3] | GFP expression of construct under control of murine stem cell virus LTR (no NF-κB responsive element) [3] | NF-κB activity and NF-κB driven gene expression [4] | HIV-1 reactivation [5]
1 | Cc1c2oc3c(C)ccc(C(=O)N[C@@H]4C(=O)N[C@H](C(C)C)C(=O)N5CCC[C@H]5C(=O)N(C)CC(=O)N(C)[C@@H](C(C)C)C(=O)O[C@@H]4C)c3nc-2c(C(=O)N[C@@H]2C(=O)N[C@H](C(C)C)C(=O)N3CCC[C@H]3C(=O)N(C)CC(=O)N(C)[C@@H](C(C)C)C(=O)O[C@@H]2C)c(N)c1=O [dactinomycin] (I: T[dV]P[Sar][NMeV] / II: T[dV]P[Sar][NMeV]; ester I:1-I:C, II:1-II:C; linker I:N-II:N via Actinocin(9to1)) | did not boost active infection, but rather inhibited active infection | shift of CDK9 presence from the large complex to the small complex was also detected | no shift towards the small complex was observed | quantitatively released P-TEFb | 0.01 |  |  |  | 
2 | HRF: flagellin polypeptide from Massilia timonae (SEQ ID NO:10), used as bacterial culture supernatant (protein) MASVINTNVPSLNSQRNLSTSQAQLNTSIQRLSSGMRINSAKDDAAGLAISDRMNSQIKGMTQATRNANDGVSMAQTAEGALSSSGDILQRIRELAVQSSNSSNSASDRKALQTEVTQLSSELNRIANTTEFNGQKLMDGTLGTANFQVGANAGQLISMTGANFNTSVYGNNQIAGDAAKAAATTSAAATGAFTISGYLGTSAAINTTDADTAKTIAASINNVTGDTGVTATARTDSFLKSAGGAHTMSLASDNSGTGEAVDISFTVGDGGDTADDYAAAISAFNAQTAKTGVTAEYDAVEKGLKLTNSAGENISLTNKAGSADIDMDTYAADGALMASALTLEAGDVGVANGRVTMDSEKSFSVAEGTDTGFELADSSALKSVAKIDISDFEGAQEAIKVADAALSAVNSQRAEYGALQSRFESAISNLSSSTENLSASRSRIVDTDFAAETAKMTRGQILQQAGTSMLAQANSLPNGVLSLLRG |  |  |  |  |  | weak GFP expression | Neither TNF-α nor HRF influenced GFP expression | lower levels of NF-κB activity and NF-κB driven gene expression than flagellin from Salmonella typhimurium | reactivated latent HIV-1 infection
